Experimental data: patent US20200375945A1, “INHALABLE FORMULATION OF A SOLUTION CONTAINING INDACATEROL MALEATE AND GLYCOPYRRONIUM BROMIDE” (priority 2019, published 2020)

Legend:
[1] = Tested concentration and assay of the active ingredients in the inhalation solution; assay type: physicochemical; details: in the sample solutions (ethanol/water, benzalkonium chloride, edetate disodium dihydrate)
[2] = Aerodynamic particle size distribution on Next Generation Impactor (NGI); assay type: physicochemical; details: sample 2 sprayed with soft mist inhaler, NGI at 30 L/min
Method: Sample 2 was sprayed with a soft mist inhaler. Aerodynamic particle size distribution of droplets of sample 2 was measured on Next Generation Impactor (NGI). Next Generation Impactor operated at a flow rate of 30 L/min was used for determination of particle size distribution. For each of the impactor experiments, the impactor collection stages were coated with a silicone oil. The aerodynamic particle size distribution is expressed in terms of mass median aerodynamic diameter (MMAD) and Geometric Standard Deviation (GSD).

Dissolution of the active in the solution [1]: completely dissolved
MMAD (mass median aerodynamic diameter) [2]: 3.37 μm
Compound: CCc1cc2c(cc1CC)CC(NC[C@H](O)c1ccc(O)c3[nH]c(=O)ccc13)C2.O=C(O)/C=C\C(=O)O [Indacaterol maleate, 5-[(R)-2-(5,6-diethyl-indan-2-ylamino)-1-hydroxy-ethyl]-8-hydroxy-(1H)-quinolin-2-one]
